Counter-ions that a name gives are not always drawn. Like-named read-outs stand apart in the source and are kept apart here.
Molecular target: T1, recombinant full-length USP7 (Homo sapiens, UniProt Q93009)
T1 construct: A 25 μl reaction volume containing recombinant full-length USP7 (62 pM)
Assay: USP7-mediated ubiquitin-rhodamine cleavage assay
Format: biochemical
Conditions: recombinant full-length USP7 62 pM, ubiquitin-rhodamine 100 nM, 1 hour reaction at room temperature
How it was run: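 USP7 (62 pM) in 20 mM HEPES pH 7.3, 150 mM NaCl, 1 mM TCEP, 125 μg/ml BSA was preincubated with compound (1% DMSO) for 30 min at room temperature. Ubiquitin-rhodamine (100 nM final) was then added for 1 hour, the reaction stopped with acetic acid, and fluorescence read; IC50 from 4-parameter fit.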

[1] = 30-minute incubation with compound, read-out: Potency: USP7 IC50
[2] = 30-minute pre-incubation, read-out: Potency (USP7 IC50)
[3] = 30-minute incubation, read-out: Potency (USP7 IC50)

T1 sequence (Q93009 whole entry): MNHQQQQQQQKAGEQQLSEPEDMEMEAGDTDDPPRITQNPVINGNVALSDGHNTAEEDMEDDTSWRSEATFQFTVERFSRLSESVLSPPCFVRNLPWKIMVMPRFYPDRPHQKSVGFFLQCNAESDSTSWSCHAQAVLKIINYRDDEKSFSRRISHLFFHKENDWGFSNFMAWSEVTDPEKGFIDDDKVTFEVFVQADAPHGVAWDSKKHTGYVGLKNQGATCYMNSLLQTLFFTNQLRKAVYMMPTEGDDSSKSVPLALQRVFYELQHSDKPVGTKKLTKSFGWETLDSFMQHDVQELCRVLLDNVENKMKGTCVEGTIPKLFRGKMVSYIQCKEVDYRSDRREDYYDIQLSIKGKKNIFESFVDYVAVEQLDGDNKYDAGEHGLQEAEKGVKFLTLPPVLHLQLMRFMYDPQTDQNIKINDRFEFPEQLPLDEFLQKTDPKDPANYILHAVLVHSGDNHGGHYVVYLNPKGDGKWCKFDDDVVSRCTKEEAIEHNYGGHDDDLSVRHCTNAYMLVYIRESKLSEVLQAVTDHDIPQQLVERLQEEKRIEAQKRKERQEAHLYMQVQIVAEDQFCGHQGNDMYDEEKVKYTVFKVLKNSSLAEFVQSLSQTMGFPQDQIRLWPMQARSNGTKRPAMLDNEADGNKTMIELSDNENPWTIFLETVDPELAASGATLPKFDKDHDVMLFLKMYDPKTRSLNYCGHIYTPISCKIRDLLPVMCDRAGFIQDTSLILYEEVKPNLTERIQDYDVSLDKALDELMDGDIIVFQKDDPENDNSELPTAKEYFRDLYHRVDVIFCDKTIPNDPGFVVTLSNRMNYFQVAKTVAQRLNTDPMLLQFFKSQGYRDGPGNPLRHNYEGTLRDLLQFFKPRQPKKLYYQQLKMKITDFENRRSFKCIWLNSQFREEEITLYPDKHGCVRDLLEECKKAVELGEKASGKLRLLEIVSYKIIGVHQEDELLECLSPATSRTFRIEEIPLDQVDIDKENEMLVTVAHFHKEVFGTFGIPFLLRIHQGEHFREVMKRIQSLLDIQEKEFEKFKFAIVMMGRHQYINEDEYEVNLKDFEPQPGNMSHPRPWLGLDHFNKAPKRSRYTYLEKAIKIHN

| Compound | IC50 [1] | other results |
| --- | --- | --- |
| Cc1cc(Cl)cc(-c2ccnc3cc(CN4C(=O)CC(C)(C)CC4=O)sc23)c1OC1CCNCC1 [Example 258, 1-((7-(5-Chloro-3-methyl-2-(piperidin-4-yloxy)phenyl)thieno[3,2-b]pyridin-2-yl)methyl)-4,4-dimethylpiperidine-2,6-dione] | < 1000 nM | – |
| Cc1cc(Cl)cc(-c2ccnc3cc(CN4CCCCS4(=O)=O)sc23)c1O[C@@H]1CNC[C@@H]1F [Example 2, 2-((7-(5-Chloro-2-(((3R,4S)-4-fluoropyrrolidin-3-yl)oxy)-3-methylphenyl)thieno[3,2-b]pyridin-2-yl)methyl)-1,2-thiazinane 1,1-dioxide] | 1000 to 10000 nM | – |
| CCC(O)c1cc2ncnc(-c3cc(Cl)cc(C)c3O[C@H]3CCCNC3)c2s1 (stereo partly drawn) [Example 174, 1-(4-(5-Chloro-3-methyl-2-(((S)-piperidin-3-yl)oxy)phenyl)thieno[3,2-d]pyrimidin-6-yl)propan-1-ol] | 1000 to 10000 nM | – |
| Cc1cc(C#N)cc(-c2ccnc3cc(CN4C(=O)C5C6CCC(C6)C5C4=O)sc23)c1O[C@@H]1CNC[C@@H]1F (stereo partly drawn) [Example 112, 3-(2-((1,3-Dioxooctahydro-2H-4,7-methanoisoindol-2-yl)methyl)thieno[3,2-b]pyridin-7-yl)-4-(((3R,4S)-4-fluoropyrrolidin-3-yl)oxy)-5-methylbenzonitrile] | < 1000 nM | – |
| 3-[[7-[5-chloro-2-[2-(3-hydroxyazetidin-1-yl)ethoxy]-3-methyl-phenyl]thieno[3,2- [Example 667] | – | IC50 [2]: < 1000 nM |
| Cc1cc(Cl)cc(-c2ccnc3cc(CN4C(=O)CCC4=O)sc23)c1O[C@H]1C[C@H]2CN[C@@H]1C2 [Example 220, 1-((7-(2-(((1R,4S,6S)-2-azabicyclo[2.2.1]heptan-6-yl)oxy)-5-chloro-3-methylphenyl)thieno[3,2-b]pyridin-2-yl)methyl)pyrrolidine-2,5-dione] | < 1000 nM | – |
| CN[C@H]1CC[C@H](Oc2c(C)cc(Cl)cc2-c2ccnc3cc(CO)sc23)CC1 [Example 179, (7-(5-Chloro-3-methyl-2-(((1r,4r)-4-(methylamino)cyclohexyl)oxy)phenyl)thieno[3,2-b]pyridin-2-yl)methanol] | 10000 to 30000 nM | – |
| N#Cc1cc(Cl)c(O[C@@H]2CNC[C@@H]2F)c(-c2ccnc3cc(CN4C(=O)CCC4=O)sc23)c1 [Example 122, 3-Chloro-5-(2-((2,5-dioxopyrrolidin-1-yl)methyl)thieno[3,2-b]pyridin-7-yl)-4-(((3R,4S)-4-fluoropyrrolidin-3-yl)oxy)benzonitrile] | < 1000 nM | – |
| Cc1cc(Cl)cc(-c2ccnc3cc(CN4C(=O)C5C(C4=O)C5(C)C)sc23)c1OC1CNCC1(C)F (stereo not shown) [Example 372, 3-[[7-[5-chloro-2-(4-fluoro-4-methyl-pyrrolidin-3-yl)oxy-3-methyl-phenyl]thieno[3,2-b]pyridin-2-yl]methyl]-6,6-dimethyl-3-azabicyclo[3.1.0]hexane-2,4-dione dihydrochloride] | < 1000 nM | – |
| Cc1cc(Cl)cc(-c2ccnc3cc(Cn4c(=O)ccn(CC(F)(F)F)c4=O)sc23)c1OC1CC(O)C1 (stereo not shown) [Example 678, 3-[[7-[5-chloro-2-(3-hydroxycyclobutoxy)-3-methyl-phenyl]thieno[3,2-b]pyridin-2-yl]methyl]-1-(2,2,2-trifluoroethyl)pyrimidine-2,4-dione] | – | IC50 [3]: < 1000 nM |
| Cc1cc(C#N)cc(-c2ccnc3ccsc23)c1OCC1(C#N)CNC1 [Example 9, 3-((4-Cyano-2-methyl-6-(thieno[3,2-b]pyridin-7-yl)phenoxy)methyl)azetidine-3-carbonitrile] | < 1000 nM | – |
| Cc1cc(Cl)cc(-c2ccnc3cc(Cn4c(=O)ccn(C(C)(C)C)c4=O)sc23)c1O[C@H]1CCCNC1 [Example 282] | < 1000 nM | – |
| Cc1cc(Cl)cc(-c2ccnc3cc(CO)sc23)c1O[C@@H]1CN[C@@H](C(C)(C)O)C1 [Example 71, 2-((2R,4S)-4-(4-Chloro-2-(2-(hydroxymethyl)thieno[3,2-b]pyridin-7-yl)-6-methylphenoxy)pyrrolidin-2-yl)propan-2-ol] | 10000 to 30000 nM | – |
| Cc1cc(Cl)cc(-c2ccnc3cc(Cn4c(=O)ccn(CC(F)F)c4=O)sc23)c1O[C@H]1CCCNC1 [Example 284, 3-[[7-[5-chloro-3-methyl-2-[[(3S)-3-piperidyl]oxy]phenyl]thieno[3,2-b]pyridin-2-yl]methyl]-1-(2,2-difluoroethyl)pyrimidine-2,4-dione; 2,2,2-trifluoroacetic acid] | < 1000 nM | – |
| Cc1cc(Cl)cc(-c2ccnc3cc(CN4C(=O)C5C(C4=O)C5(C)C)sc23)c1O[C@@H]1CCNC[C@H]1F (stereo partly drawn) [Example 294, 3-[[7-[5-chloro-2-[[(3R,4R)-3-fluoro-4-piperidyl]oxy]-3-methyl-phenyl]thieno[3,2-b]pyridin-2-yl]methyl]-6,6-dimethyl-3-azabicyclo[3.1.0]hexane-2,4-dione; 2,2,2-trifluoroacetic acid] | < 1000 nM | – |
| Cc1cc(Cl)cc(-c2ccnc3cc(CN4C(=O)CSC4=O)sc23)c1O[C@H]1CCCNC1 [Example 249, (S)-3-((7-(5-Chloro-3-methyl-2-(piperidin-3-yloxy)phenyl)thieno[3,2-b]pyridin-2-yl)methyl)thiazolidine-2,4-dione] | < 1000 nM | – |
| Cc1cc(Cl)cc(-c2ccnc3cc(Cn4c(=O)ccn(CC(F)(F)F)c4=O)sc23)c1O[C@@H]1CCN(CC(F)(F)F)C[C@@H]1C [Example 638, 3-[[7-[5-chloro-3-methyl-2-[[(3S,4R)-3-methyl-1-(2,2,2-trifluoroethyl)-4-piperidyl]oxy]phenyl]thieno[3,2-b]pyridin-2-yl]methyl]-1-(2,2,2-trifluoroethyl)pyrimidine-2,4-dione] | – | IC50 [2]: < 1000 nM |
| Cc1cc(Cl)cc(-c2ccnc3cc(CN4C(=O)CCC4=O)sc23)c1O[C@@H]1CCN(C)C[C@@H]1C [Example 308, 1-[[7-[5-chloro-2-[[(3S,4R)-1,3-dimethyl-4-piperidyl]oxy]-3-methyl-phenyl]thieno[3,2-b]pyridin-2-yl]methyl]pyrrolidine-2,5-dione] | < 1000 nM | – |
| Cc1cc(Cl)cc(-c2ncnc3cc(CN4C(=O)C5C(C4=O)C5(C)C)sc23)c1O[C@@H]1CNC[C@@H]1C (stereo partly drawn) [Example 349, 3-[[4-[5-chloro-3-methyl-2-[(3S,4S)-4-methylpyrrolidin-3-yl]oxy-phenyl]thieno[3,2-d]pyrimidin-6-yl]methyl]-6,6-dimethyl-3-azabicyclo[3.1.0]hexane-2,4-dione] | < 1000 nM | – |
| CCN1CC(Oc2c(C)cc(Cl)cc2-c2ccnc3cc(CN4C(=O)C5C(C4=O)C5(C)C)sc23)C(C)(F)C1 (stereo not shown) [Example 374, 3-[[7-[5-chloro-2-(1-ethyl-4-fluoro-4-methyl-pyrrolidin-3-yl)oxy-3-methyl-phenyl]thieno[3,2-b]pyridin-2-yl]methyl]-6,6-dimethyl-3-azabicyclo[3.1.0]hexane-2,4-dione dihydrochloride] | < 1000 nM | – |
| Cc1cc(Cl)cc(-c2ccnc3cc(Cn4c(=O)ccn(CC(F)(F)F)c4=O)sc23)c1OCC1(C(F)F)CNC1 [Example 673, 3-[[7-[5-chloro-2-[[3-(difluoromethyl)azetidin-3-yl]methoxy]-3-methyl-phenyl]thieno[3,2-b]pyridin-2-yl]methyl]-1-(2,2,2-trifluoroethyl)pyrimidine-2,4-dione] | – | IC50 [3]: < 1000 nM |
| Cc1cc(Cl)cc(-c2ccnc3cc(Cn4c(=O)ccn(CC(F)(F)F)c4=O)sc23)c1OC1CC(N2[C@@H]3CC[C@H]2COC3)C1 (stereo partly drawn) [Example 676, 3-[[7-[5-chloro-3-methyl-2-[3-[(1R,5S)-3-oxa-8-azabicyclo[3.2.1]octan-8-yl]cyclobutoxy]phenyl]thieno[3,2-b]pyridin-2-yl]methyl]-1-(2,2,2-trifluoroethyl)pyrimidine-2,4-dione] | – | IC50 [3]: < 1000 nM |
| Cc1cc(Cl)cc(-c2ncnc3cc(CN4C(=O)CCCC4=O)sc23)c1OC1CCNCC1 [Example 259, 1-((4-(5-Chloro-3-methyl-2-(piperidin-4-yloxy)phenyl)thieno[3,2-d]pyrimidin-6-yl)methyl)piperidine-2,6-dione] | 1000 to 10000 nM | – |
| Cc1cc(C)c(O[C@H]2CCCNC2)c(-c2ccnc3cc(CO)sc23)c1 [Example 248, (S)-(7-(3,5-Dimethyl-2-(piperidin-3-yloxy)phenyl)thieno[3,2-b]pyridin-2-yl)methanol] | 10000 to 30000 nM | – |
| Cc1cc(Cl)cc(-c2ccnc3cc(CN4C(=O)CCC4=O)sc23)c1O[C@@H]1CCNC[C@@H]1F [Example 209, 1-((7-(5-Chloro-2-(((3S,4R)-3-fluoropiperidin-4-yl)oxy)-3-methylphenyl)thieno[3,2-b]pyridin-2-yl)methyl)pyrrolidine-2,5-dione] | < 1000 nM | – |
| Cc1cc(Cl)cc(-c2ccnc3cc(Cn4c(=O)ccn(C)c4=O)sc23)c1O[C@@H]1CNC[C@@H](O)C1 [Example 500, 3-[[7-[5-chloro-2-[[(3S,5S)-5-hydroxy-3-piperidyl]oxy]-3-methyl-phenyl]thieno[3,2-b]pyridin-2-yl]methyl]-1-methyl-pyrimidine-2,4-dione] | – | IC50 [2]: < 1000 nM |
| Cc1cc(Cl)cc(-c2ccnc3cc(Cn4c(=O)ccn(CC(F)(F)F)c4=O)sc23)c1OC1CN2CCC1C2 [Example 589, 3-[[7-[2-[[(1S,3S,4R)-1-azabicyclo[2.2.1]heptan-3-yl]oxy]-5-chloro-3-methyl-phenyl]thieno[3,2-b]pyridin-2-yl]methyl]-1-(2,2,2-trifluoroethyl)pyrimidine-2,4-dione] | – | IC50 [2]: < 1000 nM |
| CCC(O)c1cc2nccc(-c3cc(Cl)cc(C)c3OCC3CCNCC3)c2s1 (stereo not shown) [Example 204, 1-(7-(5-Chloro-3-methyl-2-(piperidin-4-ylmethoxy)phenyl)thieno[3,2-b]pyridin-2-yl)propan-1-ol] | 10000 to 30000 nM | – |
